In US12466843B2, “Gadolinium-based compound, method for producing same, and MRI contrast agent containing same” (KYUNGPOOK NATIONAL UNIVERSITY INDUSTRY-ACADEMIC COOPERATION …, priority 2019, dated 2025):

Target: T1, VGLUT1 (Rattus norvegicus, UniProt Q62634)
T1 construct: only the hippocampus and the cerebral cortex were selected and isolated; endogenous in cells; host or cells: primary neurons from hippocampus and cerebral cortex of Sprague Dawley rat fetuses
T1 sequence (Q62634 1-560): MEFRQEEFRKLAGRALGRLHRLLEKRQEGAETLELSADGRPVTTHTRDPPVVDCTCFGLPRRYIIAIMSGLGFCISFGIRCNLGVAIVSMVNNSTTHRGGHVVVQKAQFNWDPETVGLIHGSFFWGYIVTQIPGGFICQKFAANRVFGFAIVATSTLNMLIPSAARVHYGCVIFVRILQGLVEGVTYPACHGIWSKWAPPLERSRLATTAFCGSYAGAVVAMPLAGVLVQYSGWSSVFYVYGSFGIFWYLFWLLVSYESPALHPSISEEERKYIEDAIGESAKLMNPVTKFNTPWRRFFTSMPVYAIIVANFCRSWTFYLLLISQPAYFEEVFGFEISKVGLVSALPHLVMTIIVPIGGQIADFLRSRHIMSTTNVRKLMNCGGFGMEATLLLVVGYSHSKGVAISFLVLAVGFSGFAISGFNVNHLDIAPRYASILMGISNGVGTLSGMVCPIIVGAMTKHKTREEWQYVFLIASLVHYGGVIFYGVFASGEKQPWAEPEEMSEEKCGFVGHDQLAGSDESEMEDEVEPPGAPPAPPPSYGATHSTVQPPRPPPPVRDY
Experiment: In vitro binding test via primary culture: MR phantom study
Assay type: cell-based, Sprague Dawley rats
Settings: primary rat brain neurons, 0, 50, 100, 200, 400 μM, 24 hours, washed, 3T MRI; FIG. 6A/6B
Experimental: 2) In Vitro Binding Test Via Primary Culture 2)-(1). Experimental Method {circumflex over (1)} Primary Culture of Rat Brain Neurons
Sprague Dawley rats at […] of pregnancy were purchased from Daehan Biolink. After stabilizing the pregnant […], respiratory anesthesia was performed using isoflurane, and the fetus was separated from the mother. The fetal brain was separated therefrom, the membrane was removed therefrom, and only the hippocampus and the cerebral cortex were selected and isolated, cut into small pieces, put in HBSS buffer and washed 4 times (centrifugation 1000 rpm, 3 minutes). After the last washing, HBSS was removed, and HBSS buffer containing trypsin was added thereto (cell volume: trypsin HBSS=1:1) and reaction occurred in a constant temperature water bath (37° C.) for 5 minutes. HBSS buffer containing 10% FBS was added thereto ((cell volume+trypsin HBSS): 10% FBS HBSS=1:1) to stop the enzyme reaction of trypsin, and the resulting product passed through 4 layers of lens paper and thus was formed into single cells. The cells were washed 4 times via centrifugation with HBSS buffer, and only the cells separated into the single cells were obtained. […]
The obtained cells were suspended in neurobasal media containing 1×N2 supplement, 1×B27, 4 mM L-glutamine, and 1% antibiotics at 7×10^6 cells per E-tube. […] MRI intensity was analyzed using ImageJ program.

In the case of `O=C([O-])CN1CCN(CC(=O)[O-])CCN([C@H](CO)[C@H](O)CO)CCN(CC(=O)[O-])CC1.[Gd+3]` (racemic) [Gadovist], the “phantom signal intensity (brightness) based on Gd concentration” value is reported as “little difference in brightness based on the Gd concentration”.
